Results published in US6506797B1, “Substituted phenylpropionic acid derivatives as agonists to human peroxisome proliferator-activated receptor (PPAR) α” (Kyorin Pharmaceutical Co., Ltd., priority 1999, dated 2003).

Columns and labels:
[1] = target: T1, human peroxisome proliferator-activated receptor (PPAR)α (Homo sapiens, UniProt Q07869); test: Transactivation assay for human PPARα (CHO cells, luciferase reporter); assay type: cell-based; set-up: expressed in transfected cells; host or cells: CHO cells
T1 sequence (Q07869 239-466 limits assumed): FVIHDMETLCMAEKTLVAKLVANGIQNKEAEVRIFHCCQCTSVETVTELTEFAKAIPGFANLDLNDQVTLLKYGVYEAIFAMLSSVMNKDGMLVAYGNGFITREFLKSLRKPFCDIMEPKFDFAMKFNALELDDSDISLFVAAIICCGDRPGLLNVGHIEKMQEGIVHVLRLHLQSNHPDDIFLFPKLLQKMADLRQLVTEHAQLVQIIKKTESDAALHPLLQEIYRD
Source text: Transactivation assay for human peroxisome proliferator-activated receptor (PPAR)α
To CHO cells cultured in a Dulbecco-modified Eagle's medium containing 10% delipidated fetal calf serum (FCS/DMEM), receptor plasmid that eXpresses fused protein of DNA-binding domain being transcription factor of yeast with ligand-binding domain of human type PPARα (Biochemistry, 1993, 32, 5598) its reporter plasmid (STRATAGENE Corp.), and luciferase plasmid of Renilla (Promega Corp.) as an internal standard were cotransfected with lipofectamine in the serum-free state. Thereafter, testing compound and (8S)-HETE being control compound were added to 10% FCS/DMEM and both luciferase activities were measured after 24 hours, which were corrected with internal standard.
Test of transcription activation on human peroxisome proliferator-activated receptor (PPAR)α
The test of transcription activation on human peroxisome proliferator-activated receptor (PPAR)α shown in Test example 1 was performed to obtain results shown in Table 19.

[2] = target: T1, human peroxisome proliferator-activated receptor (PPAR)α; test: Binding assay to human PPARα (His-hPPARα-LBD, [3H] ligand); set-up: expressed in transfected cells
Method: Binding assay to human peroxisome proliferator-activated receptor (PPAR)α
A plasmid that eXpresses protein of human PPARα-ligand binding domain attached with histidine tag (His-hPPARα-LBD) was cultured by infecting to Escherichia coli (JM-109) and aimed protein was recovered and purified. [^3H]-5-[(2,4-dioxothiazolidine-5-yl)methyl]-2-methoxy-N-[[4-(trifluoromethyl)phenyl]methyl]benzamide (Amasham), testing compound and (8S)-HETE being control compound were incubated for 45 minutes at room temperature at various concentrations together with His-hPPARα-LBD protein in 10 mmol/l Tris hydrochloride buffer (pH 7.4) containing 50 mmol/l potassium chloride and 10 mmol/l dithiothreitol. After the reaction, amount of [^3H]-5-[(2,4-dioxothiazolidine-5-yl)methyl]-2-methoxy-N-[[4-(trifluoromethyl)phenyl]methyl]benzamide was determined by a liquid scintillation counter.

SD strain male rats = test: Test on lipid-lowering action in fructose-loaded-diet rats; assay type: in vivo; conditions: versus vehicle control
Method: Test on Lipid-lowering Action
After SD strain male rats (Nippon Charles Liver) were bred from 8-(weeks old) with feed (Nippon Clear), test was started from 11-(weeks old). After (fasting) for 2 days, testing compound and Bezafibrate (30 mg/kg), being control compound, suspended into 0.5% solution of arabic gum were administered orally once a day for continuous 4 days. For the feed during administration period, AIN-93M modified fructose-loaded diet (Oriental Yeast) was used. After administration for 4 days, blood was collected from (trial) vein and the blood levels of triglyceride, total cholesterol, and free fatty acid were determined by enzymatic method.
The lowering rate of triglyceride in blood, overall cholesterol and free fatty acid was calculated, respectively, by determining the proportion of a figure obtained by subtracting average level of triglyceride in blood (or, average level of (total) cholesterol or level of free fatty acid) of dosage group from average level of triglyceride in blood (or, average level of (total) cholesterol or level of free fatty acid) of vehicle control group to average level of triglyceride in blood (or, average level of overall cholesterol or level of free fatty acid) of vehicle control group.

[3] = Table 19 (Test example 4), method of Test example 1, read-out: Transcriptional activity EC50
[4] = 10 mg/kg orally once a day for 4 days
[5] = 30 mg/kg orally once a day for 4 days

SMILES	melting point [°C]	EC50 [2] [nM]	EC50 [1] [nM]	other results
CC[C@@H](Cc1ccc(OC)c(C(=O)NCc2ccc(Oc3ccc(F)cc3)cc2)c1)C(=O)O [Example 174, (S)-(+)-2-ethyl-3-[4-methoxy-3-[N-[(4-fluorophenoxyphenyl)methyl]carbamoyl]phenyl]propanoic acid]	–	–	–	EC50 [1, 3]: 24 nM
COc1ccc(CC(C)(C)C(=O)O)cc1C(=O)NCc1ccc(C(F)(F)F)cc1	151 to 152	–	–	–
CCC[C@@H](Cc1ccc(OC)c(C(=O)NCc2ccc(Oc3ccccc3)cc2)c1)C(=O)O [Example 178]	85 to 86	–	–	EC50 [1, 3]: 94 nM
CCC(Cc1ccc(OC)c(C(=O)NCc2ccc(Oc3ccccc3)cc2)c1)C(=O)O (stereo not drawn) [Example 23]	–	740	24	–
CCCCC/C=C\C/C=C\C=C\[C@@H](O)C/C=C\CCCC(=O)O [(8S) HETE, (8S)-HETE, reference compound]	–	–	–	EC50 ([2]; His-hPPARα-LBD, 45 minutes at room temperature, pH 7.4, read-out: Binding activity EC50): 170 nM; EC50 ([1]; Table 17, CHO cells, human PPARα LBD fusion, luciferase after 24 hours, read-out: Transcriptional activity EC50): 1300 nM
CCC(Cc1ccc(OC)c(C(=O)NCc2ccc(-c3ccccc3)cc2)c1)C(=O)O (stereo not drawn) [Example 22]	158.5 to 159.5	430	110	–
CC[C@@H](Cc1ccc(OC)c(C(=O)NCc2ccc(C(F)(F)F)cc2)c1)C(=O)O	128 to 130	–	–	–
COc1ccc(CC(OC)C(=O)O)cc1C(=O)NCc1ccc(C(F)(F)F)cc1 (stereo not drawn) [Example 24]	161 to 163	560	180	–
CCC[C@@H](Cc1ccc(OC)c(C(=O)NCc2ccc(Oc3ccc(F)cc3)cc2)c1)C(=O)O [Example 179]	126 to 127	–	–	EC50 [1, 3]: 9.2 nM
CCC(Cc1ccc(OC)c(C(=O)NCc2ccc(C(F)(F)F)cc2)c1)C(=O)O (stereo not drawn) [46]	128 to 130	–	–	–
CCC(Cc1ccc(OC)c(C(=O)NCc2ccc(C(F)(F)F)cc2)c1)C(=O)O (stereo not drawn) [Example 20, 2-Ethyl-3-[4-methoxy-3-[N-[[4-(trifluoromethyl)phenyl]-methyl]carbamoyl]phenyl]propanoic acid]	144.5 to 146.5	190	11.5	Lowering rate (%) Free fatty acid (SD strain male rats; [4]): 77%; Lowering rate (%) Total cholesterol (SD strain male rats; [4]): 25%; Lowering rate (%) Triglyceride in blood (SD strain male rats; [4]): 53%; Lowering rate (%) Free fatty acid (SD strain male rats; [5]): 53%; Lowering rate (%) Total cholesterol (SD strain male rats; [5]): 55%; Lowering rate (%) Triglyceride in blood (SD strain male rats; [5]): 56%
CC(C)(Oc1ccc(CCNC(=O)c2ccc(Cl)cc2)cc1)C(=O)O [Bezafibrate, reference compound]	–	–	–	Lowering rate (%) Free fatty acid (SD strain male rats; [5]): 37%; Lowering rate (%) Total cholesterol (SD strain male rats; [5]): 49%; Lowering rate (%) Triglyceride in blood (SD strain male rats; [5]): 64%
COc1ccc(CC(C)C(=O)O)cc1C(=O)NCc1ccc(C(F)(F)F)cc1 (stereo not drawn) [Example 30]	155 to 156	840	200	–
